For orientation: Kd means the constant that tells how readily two partners part at equilibrium.

Molecules are shown by their SMILES. Where two headings read alike, the source gives them in different places. Positions of bridges follow the written chain, without caps; N, C: chain ends. Residues, ends and D or L forms follow the SMILES beside them.

Holding throughout (assay type): binding
The target in one assay is T1, FGF-R4 ECD (Homo sapiens, UniProt P22455).
T1 construct: DNA constructs for the extracellular domain (ECD) of human FGF-; HPC4 (C); made in house; host or cells: HEK 293-6E
T1 sequence (P22455 22-369 limits assumed): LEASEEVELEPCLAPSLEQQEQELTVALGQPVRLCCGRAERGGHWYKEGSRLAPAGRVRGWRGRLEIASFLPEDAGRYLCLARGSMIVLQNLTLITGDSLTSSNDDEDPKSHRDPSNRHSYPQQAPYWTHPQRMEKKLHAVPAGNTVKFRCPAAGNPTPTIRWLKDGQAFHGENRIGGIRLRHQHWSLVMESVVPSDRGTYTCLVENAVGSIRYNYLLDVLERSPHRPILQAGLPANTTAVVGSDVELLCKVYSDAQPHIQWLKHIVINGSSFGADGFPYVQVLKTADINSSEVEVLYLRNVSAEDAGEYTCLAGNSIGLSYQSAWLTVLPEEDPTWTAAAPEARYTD
As to the kind of experiment: single concentration BLI of crude peptides. The following applies: read-out: KD (4). Summed up:
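BLI, streptavidin sensors loaded with biotinylated receptor ECD. Single-point: ~1 μM crude peptide, PBS pH7.4/0.05% Tween-20/0.01% BSA; association then dissociation in buffer. KD corrected for UPLC-CAD-determined concentration.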

Another assay deals with T2, FGF-R1C ECD (Homo sapiens, UniProt P11362).
T2 sequence (P11362 22-376 limits assumed): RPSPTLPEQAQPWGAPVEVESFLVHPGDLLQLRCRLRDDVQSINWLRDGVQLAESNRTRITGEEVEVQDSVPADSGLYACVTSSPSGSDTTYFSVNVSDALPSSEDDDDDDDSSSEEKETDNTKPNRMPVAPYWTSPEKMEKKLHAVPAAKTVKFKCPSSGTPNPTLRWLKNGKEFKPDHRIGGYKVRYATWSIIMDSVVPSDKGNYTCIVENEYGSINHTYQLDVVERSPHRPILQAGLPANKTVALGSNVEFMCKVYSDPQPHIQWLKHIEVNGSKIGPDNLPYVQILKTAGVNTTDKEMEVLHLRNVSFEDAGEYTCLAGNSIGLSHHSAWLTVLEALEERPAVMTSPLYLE
As to the kind of experiment: biochemical. Further details: DNA constructs for the extracellular domain (ECD) of human FGF-; HPC4 (C); made in house; host or cells: HEK 293-6E. Summed up:
(§1)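 Biotinylated FGF-R ECD on streptavidin biosensors was dipped into ~1 μM crude peptide in PBS pH7.4 with 0.05% Tween-20 and 0.01% BSA for association, then into buffer for dissociation, and followed by BLI. Fitted KD values were adjusted for peptide concentration measured by UPLC-CAD.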

The target in the next assay is T3, FGF-R3C ECD (Homo sapiens, UniProt P22607).
T3 sequence (P22607 23-375 limits assumed): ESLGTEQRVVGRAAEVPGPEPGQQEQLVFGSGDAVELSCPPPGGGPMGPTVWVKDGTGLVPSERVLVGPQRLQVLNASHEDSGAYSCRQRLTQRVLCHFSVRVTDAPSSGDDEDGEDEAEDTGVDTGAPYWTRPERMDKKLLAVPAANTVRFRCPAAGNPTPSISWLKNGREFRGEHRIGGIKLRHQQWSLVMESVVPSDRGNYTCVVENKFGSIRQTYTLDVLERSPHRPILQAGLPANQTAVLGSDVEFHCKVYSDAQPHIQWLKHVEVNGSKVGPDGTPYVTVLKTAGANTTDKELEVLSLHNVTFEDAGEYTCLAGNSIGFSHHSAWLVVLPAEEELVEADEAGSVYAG
As to the kind of experiment: biochemical. Details: DNA constructs for the extracellular domain (ECD) of human FGF-; HPC4 (C); made in house; host or cells: HEK 293-6E. Summed up:
as §1

[1] abbreviates: crude T18 selection 1 (1:1:1) peptides, single concentration BLI (Table S4).

Take `CC[C@H](C)[C@@H]1NC(=O)[C@H](CC(C)C)NC(=O)[C@H](Cc2ccccc2)NC(=O)[C@H](Cc2ccc(O)cc2)NC(=O)[C@H](CCCCN)NC(=O)[C@H](C)NC(=O)[C@@H](NC(=O)[C@H](CCSC)NC(C)=O)CSSC[C@@H](C(=O)NCC(=O)N[C@@H](CO)C(=O)NCC(=O)N[C@@H](CO)C(=O)N[C@@H](CC(=O)O)C(=O)N[C@@H](Cc2ccc(O)cc2)C(=O)N[C@@H](CCCCN)C(=O)N[C@@H](CC(=O)O)C(=O)N[C@@H](CC(=O)O)C(=O)N[C@@H](CC(=O)O)C(=O)N[C@@H](CC(=O)O)C(=O)N[C@@H](CCCCN)C(N)=O)NC(=O)[C@H](CCC(N)=O)NC(=O)[C@H](CCC(N)=O)NC(=O)[C@H](Cc2ccc(O)cc2)NC(=O)[C@H](C)NC(=O)[C@H](CCCNC(=N)N)NC(=O)[C@H](Cc2c[nH]c3ccccc23)NC1=O` (Ac-MCAKYFLIWRAYQQCGSGSDYKDDDDK-NH2; disulfide 2-15): the Kd on FGF-R4 ECD (setting [1]) is 0.01 µM; on FGF-R1C ECD, greater than 10 µM; at FGF-R3C ECD, greater than 10 µM.
As to `CSCC[C@H](NC(C)=O)C(=O)N[C@H]1CSSC[C@@H](C(=O)NCC(=O)N[C@@H](CO)C(=O)NCC(=O)N[C@@H](CO)C(=O)N[C@@H](CC(=O)O)C(=O)N[C@@H](Cc2ccc(O)cc2)C(=O)N[C@@H](CCCCN)C(=O)N[C@@H](CC(=O)O)C(=O)N[C@@H](CC(=O)O)C(=O)N[C@@H](CC(=O)O)C(=O)N[C@@H](CC(=O)O)C(=O)N[C@@H](CCCCN)C(N)=O)NC(=O)[C@H](CCCCN)NC(=O)[C@H](CC(C)C)NC(=O)[C@H](C(C)C)NC(=O)[C@H](CC(C)C)NC(=O)[C@H](CCC(=O)O)NC(=O)[C@@H]2CCCN2C(=O)[C@H](CCSC)NC(=O)[C@H](Cc2ccccc2)NC(=O)[C@H](Cc2c[nH]c3ccccc23)NC(=O)[C@H](Cc2c[nH]c3ccccc23)NC1=O` (Ac-MCWWFMPELVLKCGSGSDYKDDDDK-NH2; disulfide 2-13), the Kd at FGF-R4 ECD (crude NNK peptides, single concentration BLI (Table S3)) was greater than 10 µM; at FGF-R1C ECD it was greater than 10 µM; on FGF-R3C ECD it was greater than 10 µM.
As to `CC[C@H](C)[C@@H]1NC(=O)[C@H](CCC(=O)O)NC(=O)[C@H](CC(=O)O)NC(=O)[C@H](CCC(=O)O)NC(=O)[C@H](Cc2ccc(O)cc2)NC(=O)[C@@H](NC(=O)[C@H](CCSC)NC(C)=O)CSSC[C@@H](C(=O)NCC(=O)N[C@@H](CO)C(=O)NCC(=O)N[C@@H](CO)C(=O)N[C@@H](CC(=O)O)C(=O)N[C@@H](Cc2ccc(O)cc2)C(=O)N[C@@H](CCCCN)C(=O)N[C@@H](CC(=O)O)C(=O)N[C@@H](CC(=O)O)C(=O)N[C@@H](CC(=O)O)C(=O)N[C@@H](CC(=O)O)C(=O)N[C@@H](CCCCN)C(N)=O)NC(=O)[C@H](Cc2ccc(O)cc2)NC(=O)[C@H](CC(C)C)NC(=O)[C@H](C(C)C)NC(=O)[C@H](CCCCN)NC(=O)[C@H](Cc2ccc(O)cc2)NC(=O)[C@H](CC(C)C)NC(=O)[C@H](Cc2c[nH]c3ccccc23)NC1=O` (Ac-MCYEDEIWLYKVLYCGSGSDYKDDDDK-NH2; disulfide 2-15), the Kd on FGF-R4 ECD (setting [1]) was 0.009 µM; at FGF-R1C ECD it was greater than 10 µM; on FGF-R3C ECD, greater than 10 µM.
Regarding `CSCC[C@H](NC(C)=O)C(=O)N[C@H]1CSSC[C@@H](C(=O)NCC(=O)N[C@@H](CO)C(=O)NCC(=O)N[C@@H](CO)C(=O)N[C@@H](CCC(=O)O)C(=O)N[C@@H](CCC(=O)O)C(=O)NCC(=O)N[C@@H](CO)C(=O)NCC(=O)N[C@@H](CO)C(=O)N[C@@H](CC(=O)O)C(=O)N[C@@H](Cc2ccc(O)cc2)C(=O)N[C@@H](CCCCN)C(=O)N[C@@H](CC(=O)O)C(=O)N[C@@H](CC(=O)O)C(=O)N[C@@H](CC(=O)O)C(=O)N[C@@H](CC(=O)O)C(=O)N[C@@H](CCCCN)C(N)=O)NC(=O)[C@H](CO)NC(=O)[C@H](Cc2c[nH]cn2)NC(=O)[C@H](Cc2ccccc2)NC(=O)[C@H](CC(C)C)NC(=O)[C@H](CCCNC(=N)N)NC(=O)[C@H](Cc2c[nH]c3ccccc23)NC(=O)[C@H](Cc2ccc(O)cc2)NC(=O)[C@H](Cc2ccc(O)cc2)NC(=O)[C@H](CC(C)C)NC(=O)[C@H](Cc2c[nH]cn2)NC(=O)[C@H](CCCNC(=N)N)NC(=O)[C@H](Cc2c[nH]cn2)NC1=O` (Ac-MCHRHLYYWRLFHSCGSGSEEGSGSDYKDDDDK-NH2; disulfide 2-15), the Kd on FGF-R4 ECD (setting [1]) was 0.005 µM; on FGF-R1C ECD it was greater than 10 µM; at FGF-R3C ECD it was greater than 10 µM.
As for `CSCC[C@H](NC(C)=O)C(=O)N[C@H]1CSSC[C@@H](C(=O)NCC(=O)N[C@@H](CO)C(=O)NCC(=O)N[C@@H](CO)C(=O)N[C@@H](CC(=O)O)C(=O)N[C@@H](Cc2ccc(O)cc2)C(=O)N[C@@H](CCCCN)C(=O)N[C@@H](CC(=O)O)C(=O)N[C@@H](CC(=O)O)C(=O)N[C@@H](CC(=O)O)C(=O)N[C@@H](CC(=O)O)C(=O)N[C@@H](CCCCN)C(N)=O)NC(=O)[C@H](CCC(N)=O)NC(=O)[C@H](Cc2c[nH]cn2)NC(=O)[C@H](Cc2c[nH]c3ccccc23)NC(=O)[C@H](CC(C)C)NC(=O)[C@H]([C@@H](C)O)NC(=O)[C@H](CCC(=O)O)NC(=O)[C@H](Cc2ccc(O)cc2)NC(=O)[C@@H]2CCCN2C(=O)[C@H](Cc2c[nH]cn2)NC(=O)[C@H](CCCNC(=N)N)NC(=O)[C@H](Cc2c[nH]cn2)NC(=O)[C@H]([C@@H](C)O)NC1=O` (Ac-MCTHRHPYETLWHQCGSGSDYKDDDDK-NH2; disulfide 2-15), the dissociation constant (Kd) at FGF-R4 ECD (setting [1]), on FGF-R1C ECD and at FGF-R3C ECD was greater than 10 µM each time.
Consider `CSCC[C@H](NC(C)=O)C(=O)N[C@H]1CSSC[C@@H](C(=O)NCC(=O)N[C@@H](CO)C(=O)NCC(=O)N[C@@H](CO)C(=O)N[C@@H](CC(=O)O)C(=O)N[C@@H](Cc2ccc(O)cc2)C(=O)N[C@@H](CCCCN)C(=O)N[C@@H](CC(=O)O)C(=O)N[C@@H](CC(=O)O)C(=O)N[C@@H](CC(=O)O)C(=O)N[C@@H](CC(=O)O)C(=O)N[C@@H](CCCCN)C(N)=O)NC(=O)[C@@H]2CCCN2C(=O)[C@H](Cc2ccc(O)cc2)NC(=O)[C@H](Cc2c[nH]c3ccccc23)NC(=O)[C@H](Cc2ccc(O)cc2)NC(=O)[C@H](CC(N)=O)NC(=O)[C@H](CO)NC(=O)[C@H](Cc2c[nH]c3ccccc23)NC(=O)[C@H](CCCNC(=N)N)NC(=O)[C@H](CO)NC(=O)[C@H](CCCNC(=N)N)NC(=O)[C@H](CCC(N)=O)NC(=O)[C@H](CCC(=O)O)NC1=O` (Ac-MCEQRSRWSNYWYPCGSGSDYKDDDDK-NH2; disulfide 2-15), for which the Kd at FGF-R4 ECD (setting [1]), at FGF-R1C ECD and at FGF-R3C ECD was greater than 10 µM each time.
`CC[C@H](C)[C@@H]1NC(=O)[C@H]([C@@H](C)O)NC(=O)[C@H](C(C)C)NC(=O)[C@H](Cc2ccc(O)cc2)NC(=O)[C@H](Cc2c[nH]c3ccccc23)NC(=O)[C@H](CC(=O)O)NC(=O)[C@@H](NC(=O)[C@H](CCSC)NC(C)=O)CSSC[C@@H](C(=O)NCC(=O)N[C@@H](CO)C(=O)NCC(=O)N[C@@H](CO)C(=O)N[C@@H](CC(=O)O)C(=O)N[C@@H](Cc2ccc(O)cc2)C(=O)N[C@@H](CCCCN)C(=O)N[C@@H](CC(=O)O)C(=O)N[C@@H](CC(=O)O)C(=O)N[C@@H](CC(=O)O)C(=O)N[C@@H](CC(=O)O)C(=O)N[C@@H](CCCCN)C(N)=O)NC(=O)[C@H](CCCCN)NC(=O)[C@H](CCCCN)NC(=O)[C@H](CC(C)C)NC(=O)[C@H](C(C)C)NC(=O)[C@H](CCCCN)NC(=O)[C@H](Cc2ccc(O)cc2)NC1=O` (Ac-MCDWYVTIYKVLKKCGSGSDYKDDDDK-NH2; disulfide 2-15): the Kd is 0.008 µM on FGF-R4 ECD (setting [1]), greater than 10 µM at FGF-R1C ECD and greater than 10 µM on FGF-R3C ECD.

The values above are taken from PMC10763615, “Identification and engineering of potent cyclic peptides with selective or promiscuous binding through biochemical profiling and bioinformatic data analysis” (RSC Chemical Biology, 2023).
